In patent US20250049806A1, “PHARMACEUTICAL COMPOSITION FOR PROVIDING TREATMENT FOR OR PREVENTING ALPORT SYNDROME” (UBE Corporation, priority 2021, published 2025) one finds Papp A→B data, which are given here for 18 molecules.

By Papp A→B is commonly meant how fast a substance crosses the layer from the apical side. A high value points to fast passage.

Bounds are passed on as bounds.

The nature of this series: Transcellular transport test using Caco2 cell. It is filed as in vitro ADME. To be noted: human, Caco-2, apical-to-basolateral (A-to-B), pH=7.4, 10 µM compound. The procedure: Caco2 cells (purchased from ATCC) were cultured in DMEM medium (Thermo Fisher Scientific, Inc., 11965) containing 10% FBS (Thermo Fisher Scientific, Inc., 10082) and 1% penicillin/streptomycin/amphotericin B (Thermo Fisher Scientific, Inc., 15240). A transcellular transport test was carried out in accordance with MultiScreen Caco2 Drug Transport Assembly in a 96-well system (Application Note AN1727EN, MultiScreen Caco-2 Assay System, Merck) by partially modifying it. The Caco2 cells were inoculated at a cell density of 4×10^4 cells/well onto a micropore polycarbonate insert of a 96-well plate (Merck, Millcell-96 culture insert plate 0.4 μm pore size, well membrane area=0.11 cm^2, PSHT004S5) and cultured for 20 to 22 days, and the resulting monolayer was used in the transcellular transport test. The medium of the inoculated cells was replaced with a fresh one every 3 to 4 days.
Apical-to-basolateral (A-to-B) transport in the Caco2 cell monolayer membrane was performed by using HBSS (Thermo Fisher Scientific, Inc., 14025) medium (pH=7.4) containing 20 mM HEPES (Thermo Fisher Scientific, Inc., 15630), and adding HEPES-containing HBSS medium containing 10 µM compound (a 10 mM solution of the compound in DMSO was added at a 1000-fold dilution; final DMSO concentration: 0.1%) at 75 μL/well to the apical side and HEPES-containing HBSS medium supplemented with no compound at 250 μL/well to the basolateral side, followed by culture at 37° C. for 90 minutes. After culture, a 100 μL aliquot was collected from the basolateral side, and the concentration of a permeated compound was measured by LC-MS/MS under measurement conditions mentioned later. Papp (apparent permeability; cm/sec) was calculated from the determined concentration. Papp was determined according to the expression given below by calculating the slope (dA/dt; nmol/sec) of a straight line drawn between two points 0 minutes and zero amount of the compound in a graph plotted with an assay time (90 min) on the abscissa against the amount of the compound in the solution on the permeated side on the ordinate. As for an assay concentration, the concentration in the compound in the HEPES-containing HBSS medium containing the added compound was measured by UV-HPLC under measurement conditions mentioned later.
C0: assay concentration, S: plate membrane area=0.11 cm^2
• LC: LC20 or LC30 HPLC system manufactured by Shimadzu Corp. • Column: Phenomenex Kinetex C18 (50 mm×2.1 mm, 2.6 μm) • Column temperature: 40° C. • Flow rate: 0.3 mL/min • Mobile phase A: 0.1% aqueous formic acid solution • Mobile phase B: 0.1% formic acid, 50% acetonitrile/methanol mixed solution • Gradient: 0-2 min; A/B=90/10 to 10/90, 2-3 min; A/B=10/90, 3-3.01 min; A/B=10/90 to 90/10 • MS: Q-Trap3200 manufactured by AB Sciex Pte. Ltd. • Ionization: ESI • Mode: Positive
• LC: LC20 or LC30 HPLC system manufactured by Shimadzu Corp. • Column: Phenomenex Kinetex C18 (100 mm×2.1 mm, 2.6 μm) • Column temperature: 40° C. • Flow rate: 0.25 mL/min • Mobile phase A: 0.1% aqueous formic acid solution • Mobile phase B: 0.1% formic acid, 50% acetonitrile/methanol mixed solution • Gradient: 0-3 min; A/B=90/10, 3-11 min; A/B=90/10 to 5/95, 11-15 min; A/B=5/95, 15-15.1 min; A/B=5/95 to 90/10 • UV detector: photodiode array detector
A: Papp>1×10^−6 (cm/sec), B: 1×10^−6 (cm/sec)≥Papp>5×10^−7 (cm/sec), C: 5×10^−7 (cm/sec)≥Papp>1×10^−7 (cm/sec), or D: Papp≤1×10^−7 (cm/sec).
On the technique in general: Passage across Caco-2 layers is used to estimate intestinal permeability.
In turn, `COc1cc([C@H](CC(=O)O)NC(=O)CNC(=O)c2cc(NC3=NCC(F)CN3)c3cn[nH]c3c2)cc(C(F)(F)F)c1` (stereo partly drawn) [5-(b), (3S)-3-(2-(4-((5-fluoro-1,4,5,6-tetrahydropyrimidin-2-yl)amino)-1H-indazole-6-carboxamido)acetamido)-3-(3-methoxy-5-(trifluoromethyl)phenyl)propanoic acid] came in with a Papp A→B at 90 min, 10 µM of 0.5 to 1 ×10⁻⁶ cm/s.

In turn, `O=C(O)C[C@H](NC(=O)CNC(=O)c1cc(NC2=NCC(F)CN2)c2cn[nH]c2c1)c1cc(OC(F)F)cc(OC(F)F)c1` (stereo partly drawn) [30-(b), (3S)-3-(3,5-bis(difluoromethoxy)phenyl)-3-(2-(4-((5-fluoro-1,4,5,6-tetrahydropyrimidin-2-yl)amino)-1H-indazole-6-carboxamido)acetamido)propanoic acid] returned a Papp A→B at 90 min, 10 µM of 0.5 to 1 ×10⁻⁶ cm/s.

In turn, `O=C(O)C[C@H](NC(=O)CNC(=O)c1cc(NC2=NCC(F)CN2)c2cn[nH]c2c1)c1cccc(OC(F)F)c1` (stereo partly drawn) [37-(b), (3S)-3-(3-(difluoromethoxy)phenyl)-3-(2-(4-((5-fluoro-1,4,5,6-tetrahydropyrimidin-2-yl)amino)-1H-indazole-6-carboxamido)acetamido)propanoic acid] came in with a Papp A→B at 90 min, 10 µM of over 1 ×10⁻⁶ cm/s.

Molecule `Cc1cc([C@H](CC(=O)O)NC(=O)CNC(=O)c2cc(NC3=NCC(F)CN3)c3cn[nH]c3c2)cc(C(F)(F)F)c1` (stereo partly drawn) [4-(b), (3S)-3-(2-(4-((5-fluoro-1,4,5,6-tetrahydropyrimidin-2-yl)amino)-1H-indazole-6-carboxamido)acetamido)-3-(3-methyl-5-(trifluoromethyl)phenyl)propanoic acid] showed a Papp A→B at 90 min, 10 µM of over 1 ×10⁻⁶ cm/s.

As to `O=C(O)C[C@H](NC(=O)CNC(=O)c1cc(NC2=NCC(F)CN2)c2cn[nH]c2c1)c1cc(I)cc(C(F)(F)F)c1` (stereo partly drawn) [3-(b), (3S)-3-(2-(4-((5-fluoro-1,4,5,6-tetrahydropyrimidin-2-yl)amino)-1H-indazole-6-carboxamido)acetamido)-3-(3-iodo-5-(trifluoromethyl)phenyl)propanoic acid], the Papp A→B at 90 min, 10 µM was over 1 ×10⁻⁶ cm/s.

Take `O=C(O)C[C@H](NC(=O)CNC(=O)c1cc(NC2=NCC(F)CN2)c2cn[nH]c2c1)c1cc(C(F)(F)F)cc(C(F)(F)F)c1` (stereo partly drawn) [7-(b), (3S)-3-(3,5-bis(trifluoromethyl)phenyl)-3-(2-(4-((5-fluoro-1,4,5,6-tetrahydropyrimidin-2-yl)amino)-1H-indazole-6-carboxamido)acetamido)propanoic acid]: the Papp A→B at 90 min, 10 µM lay in the range of 0.5 to 1 ×10⁻⁶ cm/s.

In turn, `O=C(O)C[C@H](NC(=O)CNC(=O)c1cc(NC2=NCC(F)CN2)cc2[nH]ncc12)c1cc(Cl)cc(C(F)(F)F)c1` (stereo partly drawn) [52-(b), (3S)-3-(3-chloro-5-(trifluoromethyl)phenyl)-3-(2-(6-((5-fluoro-1,4,5,6-tetrahydropyrimidin-2-yl)amino)-1H-indazole-4-carboxamido)acetamido)propanoic acid] registered an apparent permeability from apical to basolateral (Papp A→B) at 90 min, 10 µM of 0.1 to 0.5 ×10⁻⁶ cm/s.

For `O=C(O)C[C@H](NC(=O)CNC(=O)c1cc(NC2=NCC(F)CN2)c2cn[nH]c2c1)c1ccc(OC(F)F)cc1` (stereo partly drawn) [46-(b), (3S)-3-(4-(difluoromethoxy)phenyl)-3-(2-(4-((5-fluoro-1,4,5,6-tetrahydropyrimidin-2-yl)amino)-1H-indazole-6-carboxamido)acetamido)propanoic acid], the Papp A→B at 90 min, 10 µM is over 1 ×10⁻⁶ cm/s.

As to `O=C(O)C[C@H](NC(=O)CNC(=O)c1cc(NC2=NCC(F)CN2)c2cn[nH]c2c1)c1cc(Cl)cc(OC(F)F)c1` (stereo partly drawn) [25-(b), (3S)-3-(3-chloro-5-(difluoromethoxy)phenyl)-3-(2-(4-((5-fluoro-1,4,5,6-tetrahydropyrimidin-2-yl)amino)-1H-indazole-6-carboxamido)acetamido)propanoic acid], the Papp A→B at 90 min, 10 µM was over 1 ×10⁻⁶ cm/s.

Turning to `O=C(O)C[C@H](NC(=O)CNC(=O)c1cc(NC2=NCC(F)CN2)c2cn[nH]c2c1)c1cc(Br)ccc1F` (stereo partly drawn) [23-(b), (3S)-3-(5-bromo-2-fluorophenyl)-3-(2-(4-((5-fluoro-1,4,5,6-tetrahydropyrimidin-2-yl)amino)-1H-indazole-6-carboxamido)acetamido)propanoic acid], the apical-to-basolateral permeability (Papp A→B) at 90 min, 10 µM was over 1 ×10⁻⁶ cm/s.

With `O=C(O)C[C@H](NC(=O)CNC(=O)c1cc(NC2=NCC(F)CN2)c2cn[nH]c2c1)c1cc(OC(F)F)cc(-n2cccn2)c1` (stereo partly drawn) [29-(b), (3S)-3-(3-(difluoromethoxy)-5-(1H-pyrazol-1-yl)phenyl)-3-(2-(4-((5-fluoro-1,4,5,6-tetrahydropyrimidin-2-yl)amino)-1H-indazole-6-carboxamido)acetamido)propanoic acid], the Papp A→B at 90 min, 10 µM lay in the range of 0.1 to 0.5 ×10⁻⁶ cm/s.

Turning to `O=C(O)C[C@H](NC(=O)CNC(=O)c1cc(NC2=NCC(F)CN2)c2cn[nH]c2c1)c1cccc(N2CCOCC2)c1` (stereo partly drawn) [45-(b), (3S)-3-(2-(4-((5-fluoro-1,4,5,6-tetrahydropyrimidin-2-yl)amino)-1H-indazole-6-carboxamido)acetamido)-3-(3-morpholinophenyl)propanoic acid], the Papp A→B at 90 min, 10 µM was 0.5 to 1 ×10⁻⁶ cm/s.

As to `O=C(O)C[C@H](NC(=O)CNC(=O)c1cc(NC2=NCC(F)CN2)c2cn[nH]c2c1)c1cccc(Cl)c1` (stereo partly drawn) [41-(b), (3S)-3-(3-chlorophenyl)-3-(2-(4-((5-fluoro-1,4,5,6-tetrahydropyrimidin-2-yl)amino)-1H-indazole-6-carboxamido)acetamido)propanoic acid], the Papp A→B at 90 min, 10 µM was over 1 ×10⁻⁶ cm/s.

`O=C(O)C[C@H](NC(=O)CNC(=O)c1cc(NC2=NCC(F)CN2)c2cn[nH]c2c1)c1cccc(OC(F)(F)F)c1` (stereo partly drawn) [36-(b), (3S)-3-(2-(4-((5-fluoro-1,4,5,6-tetrahydropyrimidin-2-yl)amino)-1H-indazole-6-carboxamido)acetamido)-3-(3-(trifluoromethoxy)phenyl)propanoic acid] returned a Papp A→B at 90 min, 10 µM of over 1 ×10⁻⁶ cm/s.

`O=C(O)C[C@H](NC(=O)CNC(=O)c1cc(NC2=NCC(F)CN2)c2cn[nH]c2c1)c1cc(C(F)(F)F)ccc1Cl` (stereo partly drawn) [12-(b), (3S)-3-(2-chloro-5-(trifluoromethyl)phenyl)-3-(2-(4-((5-fluoro-1,4,5,6-tetrahydropyrimidin-2-yl)amino)-1H-indazole-6-carboxamido)acetamido)propanoic acid] gave an apparent permeability from apical to basolateral (Papp A→B) at 90 min, 10 µM of over 1 ×10⁻⁶ cm/s.

As to `COc1ccc([C@H](CC(=O)O)NC(=O)CNC(=O)c2cc(NC3=NCC(F)CN3)c3cn[nH]c3c2)cc1Br` (stereo partly drawn) [16-(b), (3S)-3-(3-bromo-4-methoxyphenyl)-3-(2-(4-((5-fluoro-1,4,5,6-tetrahydropyrimidin-2-yl)amino)-1H-indazole-6-carboxamido)acetamido)propanoic acid], the Papp A→B at 90 min, 10 µM was over 1 ×10⁻⁶ cm/s.

`O=C(O)C[C@H](NC(=O)CNC(=O)c1cc(NC2=NCC(F)CN2)cc2[nH]ncc12)c1ccc(F)c(C(F)(F)F)c1` (stereo partly drawn) [55-(b), (3S)-3-(2-(6-((5-fluoro-1,4,5,6-tetrahydropyrimidin-2-yl)amino)-1H-indazole-4-carboxamido)acetamido)-3-(4-fluoro-3-(trifluoromethyl)phenyl)propanoic acid]: the Papp A→B at 90 min, 10 µM fell in the range of 0.1 to 0.5 ×10⁻⁶ cm/s.

`O=C(O)C[C@H](NC(=O)CNC(=O)c1cc(NC2=NCC(F)CN2)c2cn[nH]c2c1)c1cc(-n2cccn2)cc(C(F)(F)F)c1` (stereo partly drawn) [8-(b), (3S)-3-(3-(1H-pyrazol-1-yl)-5-(trifluoromethyl)phenyl)-3-(2-(4-((5-fluoro-1,4,5,6-tetrahydropyrimidin-2-yl)amino)-1H-indazole-6-carboxamido)acetamido)propanoic acid] registered a Papp A→B at 90 min, 10 µM of 0.5 to 1 ×10⁻⁶ cm/s.
